Experimental data reported in patent publication US8754115B2, “Fungicidal pyrazoles” (E I du Pont de Nemours and Company, priority 2010, dated 2014).
Marks after values point to notes of the source that are not given here.

Assays:
Type in all cases: in vivo
Botrytis cinerea = experiment: Test A: preventive spray on tomato seedlings, visual disease rating (tomato Botrytis)
Excerpt: (§1) General protocol for preparing test suspensions for Tests A-F: the test compounds were first dissolved in acetone in an amount equal to 3% of the final volume and then suspended at the desired concentration (in ppm) in acetone and purified water (50/50 mix by volume) containing 250 ppm of the surfactant Trem® 014 (polyhydric alcohol esters). The resulting test suspensions were then used in Tests A-F. Spraying a 200 ppm test suspension to the point of run-off on the test plants was the equivalent of a rate of 800 g/ha. Unless otherwise indicated, the rating values indicate a 200 ppm test suspension was used. (An asterisk “*” next to the rating value indicates a 40 ppm test suspension was used.)
The test suspension was sprayed to the point of run-off on tomato seedlings. The following day the seedlings were inoculated with a spore suspension of Botrytis cinerea (the causal agent of tomato Botrytis) and incubated in saturated atmosphere at 20° C. for 48 h, and then moved to a growth chamber at 24° C. for 3 days, after which time visual disease ratings were made.
(§2) Results for Tests A-F are given in Table A. In the Table, a rating of 100 indicates 100% disease control and a rating of 0 indicates no disease control (relative to the controls). A dash (-) indicates no test results. An asterisk “*” next to the rating value indicates a 40 ppm test suspension was used.

Septoria tritici = experiment: Test D: preventive spray on wheat seedlings, visual disease rating (wheat leaf blotch)
Excerpt: as §1
The test suspension was sprayed to the point of run-off on wheat seedlings. The following day the seedlings were inoculated with a spore suspension of Septoria tritici (the causal agent of wheat leaf blotch) and incubated in saturated atmosphere at 24° C. for 48 h, and then moved to a growth chamber at 20° C. for 19 days, after which time visual disease ratings were made.
as §2

[1] = tested on: Puccinia recondite f. sp. tritici; experiment: Test E2: preventive spray on wheat seedlings, visual disease rating (wheat leaf rust)
Excerpt: as §1
The test suspension was sprayed to the point of run-off on wheat seedlings. The following day the seedlings were inoculated with a spore suspension of Puccinia recondite f. sp. tritici (the causal agent of wheat leaf rust) and incubated in a saturated atmosphere at 20° C. for 24 h, and then moved to a growth chamber at 20° C. for 7 days, after which time visual disease ratings were made.
as §2

[2] = tested on: Blumeria graminis f. sp. tritici; experiment: Test F: preventive spray on wheat seedlings, visual disease rating (wheat powdery mildew)
Excerpt: as §1
The test suspension was sprayed to the point of run-off on wheat seedlings. The following day the seedlings were inoculated with a spore dust of Blumeria graminis f. sp. tritici, (also known as Erysiphe graminis f. sp. tritici, the causal agent of wheat powdery mildew) and incubated in a growth chamber at 20° C. for 8 days, after which time visual disease ratings were made.
as §2

[3] = asterisk: 40 ppm test suspension
[4] = no asterisk: standard test suspension, not 40 ppm, 100 = 100% disease control, 0 = none
[5] = no asterisk: standard test suspension, not 40 ppm

SMILES	Test A rating (% disease control) (Botrytis cinerea; [3])	Test D rating (% disease control) (Septoria tritici; [3])	Test E2 rating (% disease control) [1, 3]	Test F rating (% disease control) [2, 3]	Test A rating (% disease control) (Botrytis cinerea; [4]) [%]	Test D rating (% disease control) (Septoria tritici; [5]) [%]	Test E2 rating (% disease control) [1, 5] [%]	Test F rating (% disease control) [2, 5] [%]
Cc1cc(F)ccc1C(O)c1c(C)nn(C)c1-n1ccnc1C (stereo not drawn) [compound 147]	0* %	0* %	17* %	0* %				
COc1nn(C)c(-c2c(F)cccc2F)c1C(O)c1c(F)ccc(F)c1Cl (stereo not drawn) [compound 139]	83* %	100* %	80* %	96* %				
COc1nn(C)c(-c2c(F)cc(F)cc2F)c1C(O)c1ccc(F)cc1F (stereo not drawn) [compound 153]	100* %	100* %	100* %	100* %				
COCOC(c1ccc(F)cc1Cl)c1c(C)nn(C)c1-c1c(F)cccc1F (stereo not drawn) [Compound 110]	0* %	100* %	98* %	99* %				
Cc1nn(C)c(-c2c(F)cc(Br)cc2F)c1C(O)c1ccc(F)cc1F (stereo not drawn) [compound 106]					98	100	97	0
Cc1nn(C)c(-n2ccnc2C)c1C(O)c1ccc(F)cc1F (stereo not drawn) [compound 146]					0	18	17	0
Cn1nc(Br)c(C(O)c2ccc(F)cc2Cl)c1-c1ccc(F)cc1Cl (stereo not drawn) [compound 125]					82	100	100	87
Cc1nn(C)c(-c2c(Cl)cncc2Cl)c1C(O)c1ccc(F)cc1F (stereo not drawn) [compound 167]	0* %	58* %	0* %	0* %				
Cn1nc(Br)c(C(O)c2ccc(F)cc2F)c1-c1c(F)cccc1Cl (stereo not drawn) [compound 131]					98	100	100	98
COc1ccc(C(O)c2c(C)nn(C)c2-c2c(F)cccc2Cl)c(Cl)c1 (stereo not drawn) [compound 170]	100* %	100* %	100* %	98* %				
Cn1nc(Cl)c(C(O)c2ccc(F)cc2Cl)c1-c1c(F)cccc1Cl (stereo not drawn) [compound 135]					100	100	100	99
Cn1nc(Br)c(C(O)c2ccc(Cl)cc2Cl)c1-c1c(F)cccc1F (stereo not drawn) [compound 163]					100	100	100	98
COc1nn(C)c(-c2c(F)cccc2F)c1C(O)c1ccc(F)cc1F (stereo not drawn) [compound 156]	100* %	100* %	99* %	99* %				
Cn1nc(Br)c(C(O)c2ccc(F)cc2F)c1-c1c(F)cccc1F (stereo not drawn) [compound 124]					99	100	100	100
COc1nn(C)c(-c2c(F)cc(Cl)cc2F)c1C(O)c1ccc(F)cc1Cl (stereo not drawn) [compound 162]	99* %	100* %	86* %	64* %				
Cc1nn(C)c(-c2c(F)cc(Br)cc2F)c1C(=O)c1ccc(F)cc1F [compound 102]					0	0	55	97
COc1ccc(C(O)c2c(OC)nn(C)c2-c2c(F)cccc2F)c(F)c1 (stereo not drawn) [compound 161]	94* %	100* %	92* %	90* %				
COc1nn(C)c(-c2c(F)cccc2Cl)c1C(O)c1ccc(F)cc1Cl (stereo not drawn) [compound 120]					100	100	100	100
Cc1cc(C)n(-c2c(C(O)c3ccc(F)cc3F)c(C)nn2C)n1 (stereo not drawn) [compound 159]					0	0	0	0
CCOc1nn(C)c(-c2c(F)cccc2F)c1C(O)c1ccc(F)cc1Cl (stereo not drawn) [compound 127]					76	100	91	99
Cc1nn(C)c(-c2ccc(F)cc2I)c1C(O)c1ccc(F)cc1Cl (single isomer, unassigned) [compound 103]					99	98	96	95
Cc1nn(C)c(-c2c(F)cccc2Cl)c1C(SC#N)c1c(F)cc(F)cc1F (stereo not drawn) [Compound 123]	87* %	100* %	99* %	90* %				
Cc1nn(C)c(-c2c(Cl)cncc2Cl)c1C(O)c1ccc(F)cc1Cl (stereo not drawn) [compound 98]	94* %	100* %	100* %	100* %				
Cc1nn(C)c(-c2c(F)cccc2Br)c1C(=O)c1ccc(F)cc1Cl [compound 93]					90	7	91	100
